Test results reported in doi:10.1101/2023.02.14.528391v1 (biorxiv, 2023).

What was measured:
hERG potassium channel [1] = target: T1, hERG potassium channel (Homo sapiens, UniProt Q12809); assay: in vitro; details: % inhibition
hERG potassium channel [2] = target: T1, hERG potassium channel; assay: biochemical; details: hERG / IC50 (nM)
hERG potassium channel [3] = target: T1, hERG potassium channel; assay: biochemical; details: hERG / Ki (nM)

T1 sequence (Q12809 whole entry): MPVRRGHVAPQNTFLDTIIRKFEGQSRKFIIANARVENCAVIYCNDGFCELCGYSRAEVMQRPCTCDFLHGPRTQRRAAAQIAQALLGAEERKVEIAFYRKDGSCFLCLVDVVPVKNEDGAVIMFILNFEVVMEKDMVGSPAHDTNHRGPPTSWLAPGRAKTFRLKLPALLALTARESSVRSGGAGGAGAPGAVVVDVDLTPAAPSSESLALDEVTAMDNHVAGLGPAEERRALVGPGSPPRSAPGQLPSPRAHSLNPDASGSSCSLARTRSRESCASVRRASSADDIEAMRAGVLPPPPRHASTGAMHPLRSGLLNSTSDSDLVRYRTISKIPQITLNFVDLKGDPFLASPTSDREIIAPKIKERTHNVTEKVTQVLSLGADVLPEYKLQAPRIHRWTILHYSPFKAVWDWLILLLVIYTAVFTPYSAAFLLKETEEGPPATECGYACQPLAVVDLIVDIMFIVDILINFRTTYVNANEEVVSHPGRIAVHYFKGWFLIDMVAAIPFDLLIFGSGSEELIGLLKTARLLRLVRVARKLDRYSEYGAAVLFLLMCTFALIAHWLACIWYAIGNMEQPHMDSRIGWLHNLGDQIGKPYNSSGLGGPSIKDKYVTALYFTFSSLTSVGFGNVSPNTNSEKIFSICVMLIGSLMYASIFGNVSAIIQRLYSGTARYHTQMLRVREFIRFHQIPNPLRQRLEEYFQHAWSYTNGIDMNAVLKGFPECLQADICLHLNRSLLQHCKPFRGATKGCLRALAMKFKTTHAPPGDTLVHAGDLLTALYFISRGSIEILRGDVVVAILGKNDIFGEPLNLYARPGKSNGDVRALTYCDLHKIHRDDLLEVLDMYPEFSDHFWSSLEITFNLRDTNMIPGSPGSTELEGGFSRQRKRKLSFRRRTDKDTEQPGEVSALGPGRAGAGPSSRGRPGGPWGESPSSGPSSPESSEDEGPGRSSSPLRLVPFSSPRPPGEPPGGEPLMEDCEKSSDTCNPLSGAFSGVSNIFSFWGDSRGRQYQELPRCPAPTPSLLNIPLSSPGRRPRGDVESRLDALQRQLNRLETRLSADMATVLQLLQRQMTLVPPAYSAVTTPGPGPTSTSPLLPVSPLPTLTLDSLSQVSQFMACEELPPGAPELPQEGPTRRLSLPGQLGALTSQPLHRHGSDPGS

Row | SMILES | inhibition at 10 µM (hERG potassium channel [1]) [%] | IC50 (hERG potassium channel [2]; Synthesis=NBI) [nM] | Ki (hERG potassium channel [3]; Synthesis=NBI) [nM] | IC50 (hERG potassium channel [2]; Synthesis=Enamine) [nM] | Ki (hERG potassium channel [3]; Synthesis=Enamine) [nM]
1 | CN(C)CCCn1nc(-c2cccc(Cl)c2)c2ccccc2c1=O [GMD_9433] | 92.5 | 721 | 510 | – | –
2 | CN(C)CCCn1nc(-c2cccnc2)c2ccccc2c1=O [GMD_11677] | 31.1 | 11100 | 7870 | – | –
3 | CN(C)CCCn1nc(-c2cccs2)c2ccccc2c1=O [GMD_12264] | – | 1890 | 1340 | – | –
4 | CN(C)CCCn1nc(-c2ccc(Cl)cc2)c2ccccc2c1=O [GMD_12503] | 72.4 | 1220 | 866 | – | –
5 | CN(C)CCn1nc(-c2ccccc2Cl)c2ccccc2c1=O [GMD_12767] | 84.2 | 1590 | 1120 | – | –
6 | CN(C)CCCn1nc(-c2ccccn2)c2ccccc2c1=O [GMD_13497] | 33.6 | 6070 | 4300 | – | –
7 | CN(C)CCn1nc(-c2cccc(Cl)c2)c2ccccc2c1=O [GMD_13630] | 79.1 | 2420 | 1710 | – | –
8 | CN(C)CCCn1nc(-c2ccccc2)c2ccccc2c1=O [GMD_14496] | 54.2 | 3580 | 2530 | – | –
9 | CN(C)CCN(C)c1nc2ccccc2n1Cc1ccccc1F [GMD_15306] | 40.7 | 3040 | 2150 | – | –
10 | CN(C)CCCn1nc(-c2cncc(Cl)c2)c2ccccc2c1=O [GMD_27933] | 80.4 | 968 | 684 | – | –
11 | CN(C)CCn1nc(-c2ccc(Cl)cc2)c2ccccc2c1=O [NBI1099469] | 71.7 | 1740 | 1230 | – | –
12 | CSc1ncccc1-c1nn(CCCN(C)C)c(=O)c2ccccc12 [NBI1100649] | 28.2 | 8700 | 6150 | – | –
13 | CN(C)CCCN(Cc1ccc(Cl)c(Cl)c1)c1ncnc2ccn(C)c12 [m_27____7425384____18313558] | 75.9 | – | – | 854 | 604
14 | CN(C)CCCN(CCCN(C)C)c1ccc2c(Br)ccc(Cl)c2n1 [s_27____6492506____8281582] | 69 | – | – | 3250 | 2300
15 | CN(C)CCN(Cc1ccccc1)c1nc2cccc(F)c2s1 [s_27____7100858____10689034] | 83 | – | – | 2240 | –
16 | CN(C)CCN(Cc1cccc(Cl)c1)c1cncc(Cl)n1 [s_27____7100894____215633] | 78.1 | – | – | 1660 | 1180
17 | CN(C)CCN(Cc1cccc(Cl)c1)c1ncncc1Cl [s_27____7100894____9139880] | 91.6 | – | – | 717 | 507
18 | CN(C)CCN(Cc1cccc(Cl)c1)c1nccc2cnccc12 [s_27____7100894____16733638] | 99.7 | – | – | 119 | 84
19 | CN(C)CCN(Cc1cccs1)c1nccc(F)c1Cl [s_27____7100914____15703356] | 55.7 | – | – | 7320 | 5180
20 | CN(C)CCN(Cc1cccs1)c1ccncc1Cl [s_27____7100914____16711384] | 49.5 | – | – | 8570 | 6060
21 | CN(C)CCCN(Cc1ccc(Cl)c(Cl)c1)c1ncc(Cl)cc1[N+](=O)[O-] [s_27____7425384____7556080] | 78.8 | – | – | 1030 | 729
22 | CCc1csc(N(CCCN(C)C)Cc2ccc(Cl)c(Cl)c2)n1 [s_27____7425384____12641810] | 86.2 | – | – | 1070 | 757
23 | CSc1nccc(N(CCCN(C)C)Cc2ccc(Cl)c(Cl)c2)n1 [s_27____7425384____15607934] | 86.6 | – | – | 1090 | 772

Row | SMILES | inhibition at 10 µM (hERG potassium channel [1]) [%] | IC50 (hERG potassium channel [2]; Synthesis=NBI) [nM] | Ki (hERG potassium channel [3]; Synthesis=NBI) [nM] | IC50 (hERG potassium channel [2]; Synthesis=Enamine) [nM] | Ki (hERG potassium channel [3]; Synthesis=Enamine) [nM]
24 | CN(C)CCCN(Cc1ccc(Cl)c(Cl)c1)c1nccc2cccnc12 [s_27____7425384____16803680] | 96.3 | – | – | 91.8 | 64.9
25 | CN(C)CCCn1nc(-c2ccccc2)c2ccccc2c1=O [s_49____14518112____88928] | – | – | – | 3710 | 2620
26 | CN(C)CCCn1nc(-c2ccc(Cl)cc2)c2ccccc2c1=O [s_49____14518112____88929] | – | – | – | 909 | –
27 | CN(C)CCCn1nc(-c2cccs2)c2ccccc2c1=O [s_49____14518112____101877] | 81.7 | – | – | 1340 | –
28 | CN(C)CCCn1nc(-c2ccc(F)cc2)c2ccccc2c1=O [s_49____14518112____1114614] | 80.8 | – | – | 2100 | –
29 | CN(C)CCn1c(-c2ccccc2Cl)nc2ccccc21 [s_60____1081314____90809] | 2.2 | – | – | 7050 | 4990
30 | CN(C)CCN(Cc1ccccc1F)C(=O)c1csc2ccccc12 [s_527____7348186____205300] | 55.6 | – | – | 7040 | 4980
31 | Clc1ccccc1N(CCN1CCOCC1)Cc1cc2ncccc2s1 [s_2230____12297302____16648172] | 66 | – | – | – | –
32 | Clc1ccccc1-n1ccc(CNC2(c3ncccn3)CCOCC2)n1 [s_2230____13270592____17316260] | -0.942 | – | – | – | –
33 | CN(C)CCN(CCO)Cc1csc(-c2c(Cl)cccc2Cl)n1 [s_2230____15141024____14479640] | 9.6 | – | – | – | –
34 | CN(C)c1ncccc1CN1CCN(C(=O)c2c(Cl)cccc2Cl)CC1 [s_270004____8133704____10229386] | 2.59 | – | – | – | –
35 | CN(C)CCN(Cc1ccccc1)Cc1nc2ccccc2n1C [s_270004____10205888____7548808] | 75 | – | – | 1480 | 1050
36 | CN(C)CCN(Cc1ccccc1)Cc1c(Cl)cccc1-n1ccnc1 [s_270004____10205888____17057166] | 71.1 | – | – | – | –
37 | CN(C)CCCN(C)Cc1c(-c2ccccc2F)nn(C)c1Cl [s_270004____10205916____16947572] | 17.6 | – | – | – | –
38 | CN(C)CCN(Cc1ccccc1F)Cc1c(Cl)ccc2cccnc12 [s_270004____10205940____8625260] | 88.9 | – | – | 82.5 | 58.3
39 | CN(C)CCN(Cc1cccc(F)c1)Cc1c(Cl)ccc2cccnc12 [s_270004____10206024____8625260] | 97 | – | – | 156 | 110
40 | COCCN(CCN(C)C)Cc1c(Cl)cccc1Oc1ccccc1 [s_270004____10206068____8363900] | 99 | – | – | – | –
41 | CN(C)CCN(Cc1cccs1)Cc1cc2cnn(C)c2nc1Cl [s_270004____10206112____16971162] | 78.3 | – | – | – | –
42 | CN(C)CCN(Cc1cccc(OCc2ccc(F)cc2)c1)Cc1nccn1C [s_270004____16637008____8127840] | 91.3 | – | – | – | –
43 | CN(C)CCOc1ccccc1-c1cn(C)c2cccnc12 [s_271570____11676396____16733458] | 63.8 | – | – | – | –
44 | CN(C)CCN(Cc1ccccc1F)C(=O)N1CCSc2ncccc21 [s_272164____9389146____17325014] | 37.3 | – | – | – | –
45 | CN(C)CCN(Cc1ccccc1)C(=O)N1CCSc2ccncc21 [s_272164____9389444____9363352] | 31.1 | – | – | – | –
46 | CN(C)CCN(Cc1cccc(Cl)c1)C(=O)N1CCSc2ccncc21 [s_272164____9389444____9369516] | 75.9 | – | – | – | –
